These results are taken from ChEMBL document CHEMBL1201862, “PubChem BioAssay data set” (2004).

The target in assay [1] is Cytochrome P450 2C9 (Homo sapiens, UniProt P11712).
Assay [2] can be described thus: NIH-3T3 fibroblast cytotoxicity, dose response, cytotoxicity control, cell-based, fluorescence, Alamar Blue, secondary assay (AID 2327).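 Also: NIH-3T3 mouse fibroblasts cultured with fluconazole at 8 µg/mL.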 In kind it is functional. In general terms: Alamar Blue is a resazurin reagent that responds to reducing activity.
Assay [3] is described as follows: fluconazole-exposed Candida albicans growth modulators – fluorescence, retest, confirmation (AID 2467). In kind it is functional, cell-based.
Assay [4] deals with T1, Corticotropin-releasing factor receptor 2/Corticotropin-releasing factor-binding protein (Homo sapiens, UniProt P24387+Q13324).
T1 sequence (Q13324 whole entry): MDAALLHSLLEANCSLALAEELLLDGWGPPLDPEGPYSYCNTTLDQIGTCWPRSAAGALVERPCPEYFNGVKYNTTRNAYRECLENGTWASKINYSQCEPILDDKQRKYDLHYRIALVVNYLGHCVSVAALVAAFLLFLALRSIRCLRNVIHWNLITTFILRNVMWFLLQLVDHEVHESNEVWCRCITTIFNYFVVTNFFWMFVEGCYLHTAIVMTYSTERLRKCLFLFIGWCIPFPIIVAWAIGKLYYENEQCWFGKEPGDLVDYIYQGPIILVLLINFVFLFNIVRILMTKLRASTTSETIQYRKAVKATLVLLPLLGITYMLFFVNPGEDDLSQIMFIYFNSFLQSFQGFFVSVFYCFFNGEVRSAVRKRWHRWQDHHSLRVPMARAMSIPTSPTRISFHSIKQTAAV
T1 sequence (P24387 whole entry): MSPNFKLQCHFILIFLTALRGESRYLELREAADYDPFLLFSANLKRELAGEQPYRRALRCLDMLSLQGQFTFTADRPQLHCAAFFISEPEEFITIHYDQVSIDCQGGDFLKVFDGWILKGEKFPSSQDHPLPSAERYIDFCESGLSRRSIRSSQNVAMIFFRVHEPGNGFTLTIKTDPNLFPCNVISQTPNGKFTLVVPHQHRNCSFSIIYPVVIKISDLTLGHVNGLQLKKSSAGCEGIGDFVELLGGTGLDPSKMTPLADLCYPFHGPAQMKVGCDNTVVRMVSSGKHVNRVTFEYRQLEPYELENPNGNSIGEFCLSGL
Briefly: Dose Response confirmation of uHTS hits for small molecule antagonists of the CRF-binding protein and CRF-R2 receptor complex. The assay is classed as functional. Particulars: read-out: IC50_Mean.

The target in assay [5] is T1, Corticotropin-releasing factor receptor 2/Corticotropin-releasing factor-binding protein. Briefly: activators of CRF receptor 2 with binding protein – uHTS hits, confirmation (AID 602473). The assay is classed as functional. To be noted: read-out: EC50_Mean.
Assay [6] in a line: NIH3T3 cell viability loss – ATP luminescence, mouse fibroblasts, counter-screen, dose response (AID 2010).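 Also: cells exposed to compound for about 90 hours before reading.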 The assay is classed as functional, cell-based. On the technique in general: The purpose of a counterscreen is to sort out artefacts and off-target activity.
Assay [7] in a line: Trypanosoma cruzi growth suppression in host cells – NIH3T3 host cells, beta-gal luminescence, confirmation (AID 2044).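 Also: intracellular parasites grown in NIH/3T3 mouse fibroblasts as host cells; luminescent beta-galactosidase reporter signal from transgenic T. cruzi replicating inside host cells; inhibitors lower the luminescence signal.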 The assay is classed as functional, cell-based.
Assay [8] concerns H4. Briefly: Luminescence Cell-Based Dose Response HTS to Identify Activators of 5'UTR Stem-Loop Driven Prion Protein mRNA Translation in H4 Neuroglioblastoma Cells. [Related pubchem assays: 1829 (Project Summary), 1814 (Primary HTS)]. To be noted: Homo sapiens. The assay is classed as functional.
Assay [9] deals with T2, Rac GTPase-activating protein 1 (Homo sapiens, UniProt Q9H0H5).
T2 sequence (Q9H0H5 whole entry): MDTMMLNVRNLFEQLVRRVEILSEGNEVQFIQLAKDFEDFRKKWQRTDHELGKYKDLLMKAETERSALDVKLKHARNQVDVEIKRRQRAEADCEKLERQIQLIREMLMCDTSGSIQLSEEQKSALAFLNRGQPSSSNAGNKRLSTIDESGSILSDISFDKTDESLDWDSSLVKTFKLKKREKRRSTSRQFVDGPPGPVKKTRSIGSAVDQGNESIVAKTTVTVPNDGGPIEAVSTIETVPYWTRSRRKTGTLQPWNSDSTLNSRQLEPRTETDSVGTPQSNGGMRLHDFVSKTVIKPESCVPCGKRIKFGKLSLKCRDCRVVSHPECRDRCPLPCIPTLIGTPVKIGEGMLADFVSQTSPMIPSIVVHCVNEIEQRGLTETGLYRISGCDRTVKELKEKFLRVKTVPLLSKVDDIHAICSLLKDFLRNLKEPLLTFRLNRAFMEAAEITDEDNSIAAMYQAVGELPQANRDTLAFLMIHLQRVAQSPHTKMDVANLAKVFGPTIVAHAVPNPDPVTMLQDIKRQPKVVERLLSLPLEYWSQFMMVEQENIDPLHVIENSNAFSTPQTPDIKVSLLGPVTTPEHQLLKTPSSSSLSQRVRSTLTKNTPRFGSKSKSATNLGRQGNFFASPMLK
Briefly: blockers of MgcRacGAP-driven Rac1 GTP hydrolysis – biochemical, ADP Hunter fluorescence, primary and confirmatory, confirmation (AID 624330). In kind it is functional.

Assay [10] can be described thus: Luminescence Cell-Based Dose Retest to Confirm Inhibitors of Cancer Stem Cells. [Related pubchem assays (depositor defined):AID2717, AID2721]. The assay is classed as functional. To be noted: Homo sapiens.
Assay [11] has as its system Streptococcus. Briefly: GAS UMAA2166 growth inhibition – luminescence, BacTiterGlo, counter-screen for streptokinase expression inhibitor project, dose response (AID 1915).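 Also: potency for reduction of bacterial viability or growth.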 The assay is classed as functional, organism-based.
Assay [12] concerns INS1. Briefly: INS-1E survival protection against cytokine death – cell-based, luminescence, retest, dose response (AID 449756).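 Also: cell death triggered by IL-1 beta plus TNF-alpha plus IFN-gamma mixture; protective hits raise ATP signal compared with cytokine alone wells.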 In kind it is functional. Particulars: Rattus norvegicus.
Assay [13] has as its system Streptococcus sp. 'group A'. Briefly: Streptococcus pyogenes SK(-)GAS viability under kanamycin – luminescence, BacTiterGlo, confirmation, counter-screen for streptokinase expression inhibitor project, dose response (AID 1900). The assay is classed as functional, organism-based.
The nature of assay [14]: P. falciparum Dd2 growth inhibitors, dose response, SYBR Green, cherry-picked samples (AID 1159567). The assay is classed as functional, cell-based.

Active and inactive are the calls of the source. Bounds are passed on as bounds.

Cytochrome P450 2C9, sequence (P11712 whole entry): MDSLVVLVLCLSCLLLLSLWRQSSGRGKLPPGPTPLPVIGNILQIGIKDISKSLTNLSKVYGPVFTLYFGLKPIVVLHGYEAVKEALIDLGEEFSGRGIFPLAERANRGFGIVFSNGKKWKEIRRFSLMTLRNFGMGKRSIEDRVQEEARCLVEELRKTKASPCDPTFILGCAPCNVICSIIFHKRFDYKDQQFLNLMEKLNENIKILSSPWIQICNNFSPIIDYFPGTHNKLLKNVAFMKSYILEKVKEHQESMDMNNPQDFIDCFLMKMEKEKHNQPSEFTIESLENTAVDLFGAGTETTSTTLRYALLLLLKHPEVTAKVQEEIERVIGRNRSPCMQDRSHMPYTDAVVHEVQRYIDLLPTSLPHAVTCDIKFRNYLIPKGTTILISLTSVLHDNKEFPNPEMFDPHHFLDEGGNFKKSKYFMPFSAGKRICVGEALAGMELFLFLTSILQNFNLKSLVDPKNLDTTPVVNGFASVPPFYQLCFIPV

Broadly, the AC50 is the midpoint of the concentration-response curve, whichever way the signal moves. With `COc1ccc2c(c1)c(CC(=O)O)c(C)n2Cc1ccc(Cl)cc1`, the AC50 in assay [1] was 12.6 µM (inconclusive).

Consider `CC(C)CCOc1ccc(NC(=O)C2OC3OC(C)(C)OC3C3OC(C)(C)OC23)cc1` (stereo unspecified), for which the AC50 in assay [1] was 25.1 µM (inconclusive).

`Cc1cccc(NC(=O)NNC(=O)c2cc3ccccc3cc2O)c1C`: the results for the EC50 in assay [2] and in assay [3] were 80.6 µM (active) and > 38 µM (not active), respectively. For `CCOc1ccc(C(CCc2ccccc2)NC(=O)c2ccccc2OC)cc1OCC` (stereo unspecified), the IC50 in assay [4] is > 47.1 µM (inactive). Also, in [5], the EC50 is > 53 µM (inactive).

Consider `COc1cc(OC)c(NC(S)=NCc2ccccc2)cc1Cl`, for which the values for the EC50 in [2] and in assay [3] were > 160 µM (inactive) and > 38 µM (not active), respectively. As to `O=C(NNC(=O)c1ccccc1C(=O)O)c1ccc(O)cc1`, the IC50 in assay [4] is > 47.1 µM (inactive). In addition, in assay [5], the EC50 was > 53 µM (inactive). Take `CSc1cnc2c(N)nc(N(C)C)nc2n1`: the EC50 was > 160 µM (inconclusive) in assay [2] and 2.63 µM (active) in assay [3]. For `CS(=O)(=O)Oc1ccc(Br)c2cccnc12`, the IC50 in assay [4] is > 47.1 µM (inactive). Further, in assay [5], the EC50 was > 53 µM (inactive). The matching figures for `Cc1c(C(=O)O)sc(S(=O)(=O)N2CCN(C(=O)Cc3ccc(F)cc3)CC2)c1C(=O)O`: > 47.1 µM (inactive) and > 53 µM (inactive).

For `CC(=O)c1c(O)cc(=O)n(-c2ccccc2)c1-c1cccc2ccccc12`, the AC50 in assay [1] was 22.4 µM (inconclusive). As for `c1ccc(COc2ccccc2CNC23CC4CC(CC(C4)C2)C3)cc1`, the EC50 in [2] is > 160 µM (inactive); in assay [6], > 60 µM (not active); in assay [7], 2.36 µM (active); in [3], > 38 µM (not active). `COc1ccccc1CNc1nc(-c2ccc(N(C)C)cc2)nc2ccccc12`: the AC50 in assay [1] was 0.794 µM (inconclusive). Consider `COc1ccc(/C=C2\CCn3c2nc2ccccc2c3=O)cc1OC`, for which the EC50 in [8] is 1.08 µM (active). As to `Cc1ccc(S(=O)(=O)c2nc(S(C)(=O)=O)sc2N2CCOCC2)cc1`, the IC50 in assay [4] is > 47.1 µM (inactive). The EC50 in [5] is > 53 µM (inactive). In the same order, the values of `O=C(CCCOc1ccc(Cl)cc1)Nc1cccc(C(=O)O)c1` are > 47.1 µM (inactive) and > 53 µM (inactive). Take `COc1ccc(CN2CCN(Cc3ccccc3OC)CC2)cc1`: the IC50 in [9] was 74.7 µM (active).

Consider `Cc1noc(C)c1S(=O)(=O)N1CCC(C(=O)N2CCN(c3ccc(Cl)cc3)CC2)CC1`, for which the IC50 in [4] was > 47.1 µM (inactive). Moreover, the EC50 in assay [5] was > 53 µM (inactive).

Consider `CC1(C)CC(=O)C2=C(C1)OC1=C(C(=O)CC(C)(C)C1)C2c1cc([N+](=O)[O-])cc([N+](=O)[O-])c1O`, for which the results for the EC50 in assay [2] and in assay [3] were > 160 µM (inactive) and 0.221 µM (active), respectively. Consider `c1cc2c(cc1CNc1ccc(N3CCOCC3)cc1)OCO2`, for which the IC50 in [9] was 6.57 µM (active).

`Cn1c(=S)c2nc(SCc3cccnc3)[nH]c2n(C)c1=O`: the AC50 in assay [1] is 6.31 µM (inconclusive). Consider `CC(C)Cc1ccc(C(C)C(=O)Nc2ccc(O)cc2)cc1` (stereo unspecified), for which the EC50 in assay [5] is 3.77 µM (active).

Take `CCCc1ccc(C(=O)NNc2ccc(F)cc2)cc1`: the AC50 in assay [10] is 1.03 µM (active). The EC50 in [2] was 13 µM (inconclusive); in assay [3], > 38 µM (not active).

With `CN(C)c1ccc(/C=C2/C(=O)NC(=O)N(Cc3ccco3)C2=O)cc1`, in assay [9], the IC50 is 142 µM (active). On to `O=C1N=C(N2CCOCC2)S/C1=C1\C(=O)N(Cc2ccccc2)c2ccccc21`, for which the EC50 in [8] is 45 µM (inconclusive). The same measure, in the same setting: the value for `CC(C)NC1=NN=C(c2ccc(Cl)c(Cl)c2)CS1` was 0.597 µM (active).

With `CC1CCCC(N2CCN(C(=O)c3ccc([N+](=O)[O-])cc3)CC2)C1` (stereo unspecified), the IC50 in assay [9] is 167 µM (active).

Regarding `CCN(CC)CCN(C(=O)c1ccc2ccccc2c1)c1nc2ccc(OC)cc2s1`, the figures for the EC50 in assay [2] and in assay [3] were > 160 µM (inactive) and > 38 µM (not active), respectively. In the case of `c1ccc(CSc2nnc([C@@H]3CCCN3)o2)cc1`, in [1], the AC50 was 5.62 µM (inconclusive). As to `COc1ccc(C#Cc2c(-c3ccccc3)n(-c3ccccc3)c3ccc(CO)cc23)cc1`, the IC50 in assay [4] was > 47.1 µM (inactive). The EC50 in [5] was > 53 µM (inactive). In the same order, the values of `CCN1C(=O)CC2CCCC1C2` (stereo unspecified) are > 47.1 µM (inactive) and > 53 µM (inactive). As to `CCN(CC)c1ccc(/C=N/NC(=O)OC)c(O)c1`, the IC50 in assay [9] was 66 µM (active). As for `COc1cc(OC)c2cc(C(=O)N/N=C/c3ccccc3O)[nH]c2c1`, the EC50 in assay [11] was 7.68 µM (active); in [2], 23.1 µM (active); in [3], 1.47 µM (active); in [13], 781 nM (active). The AC50 in assay [12] was 3.06 µM (active). Consider `COc1cc(C=C2CN(C)C(=O)C2=O)ccc1O`, for which, in [9], the IC50 was 19.6 µM (active). Same read-out and setting: the value for `O=C(N/N=C/c1ccc(O)c2ccccc12)c1cccnc1` was 127 µM (active). Regarding `CO[C@H]1CN(C)C(=O)c2cc(NC(=O)c3nc4ccccc4s3)ccc2OC[C@@H](C)NC[C@@H]1C`, the AC50 in [14] is 7.49 µM (active). Regarding `COc1cccc(C#Cc2ccc([C@H]3[C@@H](C#N)N(C(=O)C4CCCC4)[C@@H]3CO)cc2)c1`, in [14], the AC50 is 5.62 µM (active). On the same count and under the same terms, the value for `COc1cccc(-c2ccc3c(c2)[C@H]2[C@H](CCN2C(=O)C2CCCC2)[C@@H](CO)N3)c1` was 6.77 µM (active). Still for that read-out and setting: the value for `CCC(=O)N1CC2(C1)[C@@H](c1ccc(-c3cccc(OC)c3)cc1)[C@@H](CO)N2C(C)=O` was 22.2 µM (active).

Take `COc1ccc(S(=O)(=O)N(C)C[C@@H]2OCc3ccccc3-c3c(n(C)c4ccccc34)C(=O)N([C@H](C)CO)C[C@H]2C)cc1`: the AC50 in assay [14] was 4.65 µM (active).

Consider `Cc1ccc(-c2ccc3c(c2)O[C@@H](CN(C)Cc2cccnc2)[C@@H](C)CN([C@@H](C)CO)S3(=O)=O)cc1`, for which the AC50 in [14] was 5.62 µM (active).

On to `Cc1ccc(-c2ccc([C@H]3[C@@H]4CN(S(=O)(=O)c5ccccc5)C[C@H]3N4)cc2)cc1`, for which the AC50 in assay [14] was 3.66 µM (active). On to `COc1cccc(NC(=O)Nc2ccc3c(c2)C(=O)N(C)C[C@@H](OC)[C@H](C)CN[C@@H](C)CO3)c1`, for which, in [14], the AC50 is 22.8 µM (active).

`Cc1ccc(-c2nn3c(O)c4c(nc3c2C)CCCC4)cc1`: in [1], the AC50 is 6.31 µM (inconclusive).
